Structures can show the parent of a compound that is named as a salt.
What was measured:
ovariectomized rats [1] = experiment: Effects on climacteric syndrome (hot flash-like symptom): tail skin temperature of ovariectomized rats; format: in vivo, rat; conditions: for Effect on the action of β-estradiol on the tissues involved in the hot flash-like symptom: combined use, summary of Table 3; for Effect on hot flash-like symptom: summary of Table 2
Method: The effect of the compound of the present invention on climacteric syndrome was investigated using ovariectomized rats. The ovariectomized rats were prepared by removing the ovary on the both sides from 8-week-old Jcl:SD female rats (manufactured by CLEA Japan, Inc.) under ether anesthesia. The rats were bred under the conditions of illumination for 12 hours (6:00-18:00) every day, room temperature 24±0.5° C., and were allowed free intake of solid feed (CE-2, manufactured by CLEA Japan, Inc.) and water. The rats after 2 weeks of ovariectomy were subjected to the following experiment. The rats to be used for sham surgery group were treated in the same manner except ovariectomy.
The rats after 2 weeks of ovariectomy and sham surgery were subjected to the measurement of tail skin temperature by reference to the method of Hosono et al. (Am. J. Physiol. Regulatory Integrative Comp. Physiol. 280: R1341-R1347, 2001) without anesthesia. To be specific, a temperature sensor (SXK-67, manufactured by TAKARA THERMISTOR) was fixed at 5 cm from the base of the tail of the rats with an adhesive plaster (manufactured by NICHIBAN), and covered with an aluminum plate. The other end of the temperature sensor was connected to a fluclet (manufactured by DAINIPPON PHARMACEUTICAL CO., LTD.) via an amplifier (E332, manufactured by TAKARA THERMISTOR) and measurement and analysis were performed for 2 hr. The results are shown in Table 1, wherein an incidence of a hot flash-like symptom was confirmed at the tail of the ovariectomized rats.
A test compound was dissolved in a solvent (10% aqueous cyclodextrin solution), and orally administered to ovariectomized rats once a day for two consecutive weeks. The tail skin temperature was measured in the same manner as in the aforementioned method on the day of the final administration.

ovariectomized rats [2] = experiment: Effect on decreased femur bone density of ovariectomized rat (pQCT); format: in vivo; conditions: for Bone density: femural metaphysis, oral once a day for 4 weeks; for Effect on decrease in the bone density due to ovariectomy: summary of Table 5(1) and 5(2)
Excerpt: The ovary on the both sides of 13-week-old Jcl:SD female rats (manufactured by CLEA Japan, Inc.) were removed under ether anesthesia or the rats were subjected to a sham surgery, and a test compound dissolved in 10% aqueous cyclodextrin solution was orally administrated from the next day once a day for 4 consecutive weeks (10 rats/group). The rats were sacrificed by hemorrhage on the next day of the final administration and the left femur was removed. The bone density of the femural metaphysis was measured using pQCT [peripheral Quantitative Computed Tomography, XCT-960A, manufactured by Norland-Stratec].

ovariectomized rats [3] = experiment: Luteinizing hormone (LH) level in serum of ovariectomized rats; format: in vivo; conditions: ovariectomized rat; for Serum LH: oral once a day for two weeks
Method: (§1) A test compound was dissolved in 10% aqueous cyclodextrin solution and orally administered to ovariectomized rats once a day for two consecutive weeks. The blood was drawn under ether anesthesia. The blood sample was allowed to coagulate at room temperature for 1 hr and centrifuged at 3000 rpm for 10 min to give serum. The amount of LH in serum was measured using a rat LH radioimmunoassay kit (manufactured by Immunotec Research Ltd., France).

Jcl:SD male rats = experiment: Effect on serum cholesterol level in rat; format: in vivo; conditions: for Blood cholesterol: oral once a day for 4 days; for Blood cholesterol lowering action: summary of Table 6(1) and 6(2)
Method: A test compound was dissolved in 10% aqueous cyclodextrin solution, and orally administrated to 7-week-old Jcl:SD male rats (manufactured by CLEA Japan, Inc.) once a day for 4 consecutive days. The blood was drawn on the next day of the final administration, and plasma cholesterol was measured using a measurement kit (cholesterol CII-testwako, manufactured by Wako Pure Chemical Industries, Ltd.).

ovariectomized rats [4] = experiment: Uterus weight of ovariectomized rat (side effects); format: in vivo; conditions: for Uterus weight: ovariectomized rat
Method: as §1
To investigate the side effects of the compound of the present invention, the test compound was orally administered consecutively to ovariectomized rats and sham surgery rats in the same manner as in Experimental Example 1b, the uterus was removed and weighed.

[5] = Table 2, oral once a day for two weeks, dose 0.1 mg/kg
[6] = Table 2, oral once a day for two weeks, dose 1.0 mg/kg
[7] = Table 2, oral once a day for two weeks, dose 10.0 mg/kg
[8] = Table 7, oral once a day for two weeks, dose 1.0 mg/kg

SMILES | Average tail skin temperature (ovariectomized rats [1]; [5]) [°C] | Average tail skin temperature (ovariectomized rats [1]; [6]) [°C] | Average tail skin temperature (ovariectomized rats [1]; [7]) [°C] | Effect on the action of β-estradiol on the tissues involved in the hot flash-like symptom (ovariectomized rats [1]) | Effect on hot flash-like symptom (ovariectomized rats [1]) | Effect on decrease in the bone density due to ovariectomy (ovariectomized rats [2]) | Bone density (ovariectomized rats [2]; Table 5(1), dose 1.0 mg/kg) [mg/mL] | Blood cholesterol (Jcl:SD male rats; Table 6(1), dose 0.3 mg/kg) [mg/dL] | Blood cholesterol lowering action (Jcl:SD male rats) | Uterus weight (ovariectomized rats [4]; [8]) [mg] | also measured
Cl.Oc1ccc2c(c1)CC[C@@]21C[C@@H](c2ccc(OCCN3CCCCC3)cc2)c2cc(O)ccc21 (relative stereo) [Example 36A, (1R*,3S*)-3-[4-(2-piperidinoethoxy)phenyl]-1,1′-spirobiindan-5,5′-diol hydrochloride] | 29.9 ± 0.4 | 29.4 ± 0.4 | 29.0 ± 0.4 | did not inhibit the action of β-estradiol | improved the hot flash-like symptom |  |  |  |  |  | 
Cl.Oc1ccc2c(c1)CCC21C=C(c2ccc(OCCN3CCCCC3)cc2)c2cc(O)ccc21 (single isomer, unassigned; (+)) [Example 37, (+)-3-[4-(2-piperidinoethoxy)phenyl]spiro[indene-1,1′-indan]-5,5′-diol hydrochloride] |  |  |  |  |  | significantly suppressed the decrease in the bone density |  |  |  |  | Bone density (ovariectomized rats [2]; Table 5(2), dose 0.01 mg/kg): 551 ± 10 mg/mL; Bone density (ovariectomized rats [2]; Table 5(2), dose 0.1 mg/kg): 620 ± 15 mg/mL; Bone density (ovariectomized rats [2]; Table 5(2), dose 1.0 mg/kg): 658 ± 17 mg/mL
Oc1ccc2c(c1)CCC21C=C(c2ccc(OCCN3CCCCC3)cc2)c2cc(O)ccc21 (stereo not shown) [Example 1, 3-[4-(2-piperidinoethoxy)phenyl]spiro[indene-1,1′-indan]-5,5′-diol hydrochloride] | 29.4 ± 0.3 | 28.9 ± 0.4 | 28.0 ± 0.5 | did not inhibit the action of β-estradiol | improved the hot flash-like symptom | significantly suppressed the decrease in the bone density | 738.0 ± 47.9 | 41.6 ± 5.2 | significant blood cholesterol lowering action at a lower dose than β-estradiol | 178.6 ± 9.3 | Serum LH (ovariectomized rats [3]; dose 1.0 mg/kg): 10.1 ± 0.60 ng/mL; Effect on increase in the LH amount due to ovariectomy (ovariectomized rats [3]; summary of Table 4): significantly suppressed increase in the LH amount; Blood cholesterol (Jcl:SD male rats; Table 6(1), dose 0.03 mg/kg): 63.1 ± 4.8 mg/dL; Blood cholesterol (Jcl:SD male rats; Table 6(1), dose 0.1 mg/kg): 53.8 ± 7.3 mg/dL; Effect on uterus weight of ovariectomized rat (ovariectomized rats [4]; summary of Table 7): does not significantly increase the uterus weight; Effect on the uterus weight increasing action of β-estradiol (ovariectomized rats [4]; summary of Table 8): significantly suppressed the uterus weight increasing action of β-estradiol
CC(C)CN1CCC(c2ccc(C3=CC4(CCc5cc(O)ccc54)c4ccc(O)cc43)cc2)CC1 (stereo not shown) [Example 30, 3-[4-(1-isobutyl-4-piperidinyl)phenyl]spiro[indene-1,1′-indan]-5,5′-diol hydrochloride] |  |  |  |  |  |  |  |  | significant blood cholesterol lowering action at a lower dose than β-estradiol |  | Blood cholesterol (Jcl:SD male rats; Table 6(2), dose 1.0 mg/kg): 23.6 ± 2.2 mg/dL
C[C@]12CC[C@@H]3c4ccc(O)cc4CC[C@H]3[C@@H]1CC[C@@H]2O [β-estradiol, reference compound] |  |  | 27.7 ± 0.2 |  |  |  | 767.3 ± 63.9 | 62.7 ± 7.5 |  | 406.3 ± 20.6 | Average tail skin temperature (ovariectomized rats [1]; Table 2, oral once a day for two weeks, dose 3.0 mg/kg): 28.4 ± 0.6 °C; Average tail skin temperature (ovariectomized rats [1]; Table 3, oral once a day for two weeks, single use, dose 3.0 mg/kg): 28.1 ± 0.6 °C; Serum LH (ovariectomized rats [3]; dose 3.0 mg/kg): 7.6 ± 0.97 ng/mL; Blood cholesterol (Jcl:SD male rats; Table 6(1), dose 1.0 mg/kg): 42.8 ± 6.1 mg/dL; Blood cholesterol (Jcl:SD male rats; Table 6(1), dose 3.0 mg/kg): 25.8 ± 2.0 mg/dL; Uterus weight (ovariectomized rats [4]; Table 8, single administration, dose 3.0 mg/kg): 491.7 ± 19.6 mg
